According to publication PMC6591251, “Discovery of potent necroptosis inhibitors targeting RIPK1 kinase activity for the treatment of inflammatory disorder and cancer metastasis” (Cell Death & Disease, 2019):
Several values for one entry are separate records, joined by “and”; a condition that tells them apart may be missing. Equal entries are not always repeated.

Experiments:
HeLa-MLKL (1–190) cells = test: MLKL dimerization-induced cell death (AP20187); assay type: cell-based, human; conditions: AP20187 100 nM, 24 h
Description: (§1) Recombinant proteins were incubated with PK6 and PK68 as indicated. […] NIH3T3-RIPK3 cells were pretreated with indicated compounds for 1 h and subsequently treated with T (40 ng/ml)/S (100 nM)/Z (20 μM) or AP20187 (100 nM) for 24 h. Cell viability was determined by measuring ATP levels. e PK6 and PK68 have no effect on MLKL dimerization-induced cell death in HeLa-MLKL (1–190) cells that stably express MLKL (1–190aa) fused to DmrB. HeLa-MLKL (1–190) cells were pretreated with indicated compounds for 1 h and subsequently treated with AP20187 (100 nM) for 24 h. Cell viability was determined by measuring ATP levels.
Further, we evaluated the selectivity of PK68 against a panel of 369 kinases provided by Reaction Biology (at 1000 nM). […] In addition, we followed on some of the active “hits” from the kinome scan. PK68 was tested against TNIK and TRKA by a reputable CRO company. […] RIPK1 is known to mediate NF-κB activation independently of its kinase activity. […] It has been shown that homodimerization of RIPK3 or MLKL induced by the dimerizer leads to necroptosis bypassing the upstream signals[10],[37]. […] This dimerized RIPK3-induced necroptosis was blocked by RIPK3 inhibitor GSK873 but was not blocked by the RIPK1 inhibitor necrostatin-1. […] (Fig. 4e).
The cell viability was analyzed by using the CellTiter-Glo Luminescent Cell Viability Assay kit following the manufacturer’s instructions (Promega). Luminescence was measured with SpectraMax i3x (Molecular Devices).

mouse RIPK1 = target: T1, mouse RIPK1 (Mus musculus, UniProt Q60855); test: In vitro kinase activity assay (ADP-Glo); assay type: biochemical; conditions: recombinant mouse RIPK1
T1 construct: purchased SignalChem
Description: (§2) Having shown that PK6 and PK68 can inhibit activation of both RIPK1 and RIPK3 during TNF-mediated necroptosis, we sought to determine if PK6 and PK68 can directly target RIPK1 or and RIPK3 by performing in vitro kinase assays. Both PK6 and PK68 were able to block the kinase activities of both human RIPK1 and mouse RIPK1 in vitro (Fig. 4a and Supplementary Fig. 19).
The recombinant RIPK1 or RIPK3 protein was incubated with DMSO or the indicated compound for 15 min in the assay buffer (25 mM HEPES pH 7.2, 20 mM MgCl2, 12.5 mM MnCl2, 12.5 mM β-glycerol phosphate, 5 mM EGTA, 2 mM EDTA, and 2 mM DTT). Then, ATP (50 μM) and the substrate MBP (20 μM) were added to the reaction at room temperature for 120 min. The luminescence was measured to calculate the kinase activity after the addition of the ADP-Glo Kinase Assay kit following the manufacturer’s instructions (Promega).
Supplementary Figure 19. Both PK6 and PK68 were able to block the kinase activity of mouse RIPK1 in vitro.
In vitro kinase activity assays using recombinant mouse RIPK1 were performed. Recombinant proteins were incubated with PK6(A) and PK68(B) as indicated. Data represent mean value ±standard deviation.

human RIPK1 = target: T2, human RIPK1 (Homo sapiens, UniProt Q13546); test: In vitro kinase activity assay (ADP-Glo); assay type: biochemical; conditions: recombinant RIPK1; ATP 50 μM
T2 construct: purchased SignalChem
Description: as §2, §1
The recombinant RIPK1 or RIPK3 protein was incubated with DMSO or the indicated compound for 15 min in the assay buffer (25 mM HEPES pH 7.2, 20 mM MgCl2, 12.5 mM MnCl2, 12.5 mM β-glycerol phosphate, 5 mM EGTA, 2 mM EDTA, and 2 mM DTT). […] The luminescence was measured to calculate the kinase activity after the addition of the ADP-Glo Kinase Assay kit following the manufacturer’s instructions (Promega).

[1] = system: HT-29 cells stably expressing Flag-tagged RIPK3; test: RIPK3 puncta formation, immunofluorescence; assay type: cell-based, human; conditions: T 100 ng/ml, S, Z 12 h
Text: In addition to TNF-induced necroptosis, it is known that TLR3 or TLR4 activation can also trigger necroptosis. We further evaluated the effects of PK6 and PK68 on TLR3- and TLR4-mediated necroptosis induced by poly(I:C)/z-VAD and LPS/z-VAD, respectively. […] To investigate the molecular mechanism of PK series-mediated necroptosis inhibition, we examined the effects of these compounds on the major steps of necroptotic signaling, including activation of RIPK1, RIPK3, and MLKL. […] It has been shown previously that RIPK3 activation leads to the formation of RIPK3 puncta during necroptosis.
Fig. 3 PK6 and PK68 block cellular activation of RIPK1, RIPK3, and MLKL upon necroptotic stimuli. a, b Bone marrow-derived macrophages from C57BL/6 mice or rat were pretreated with DMSO, PK6(10 μM), or PK68 (100 nM) for 1 h and subsequently treated with indicated stimuli for 24–30 h. Cell viability was determined by measuring ATP levels. L, LPS (20 ng/ml); P, poly(I:C) (50 μg/ml); S (100 nM); Z (10 μM). Data are represented as the mean ± standard deviation of triplicates. c HT-29 cells were treated with the indicated compound for 1 h prior to the treatment of T (40 ng/ml), S (100 nM), and Z (20 μM) for additional 8 h. […] The distribution of RIPK3 was detected by immunofluorescence. *P < 0.05. **P < 0.01. ***P < 0.001 […]

T2 sequence (Q13546 whole entry): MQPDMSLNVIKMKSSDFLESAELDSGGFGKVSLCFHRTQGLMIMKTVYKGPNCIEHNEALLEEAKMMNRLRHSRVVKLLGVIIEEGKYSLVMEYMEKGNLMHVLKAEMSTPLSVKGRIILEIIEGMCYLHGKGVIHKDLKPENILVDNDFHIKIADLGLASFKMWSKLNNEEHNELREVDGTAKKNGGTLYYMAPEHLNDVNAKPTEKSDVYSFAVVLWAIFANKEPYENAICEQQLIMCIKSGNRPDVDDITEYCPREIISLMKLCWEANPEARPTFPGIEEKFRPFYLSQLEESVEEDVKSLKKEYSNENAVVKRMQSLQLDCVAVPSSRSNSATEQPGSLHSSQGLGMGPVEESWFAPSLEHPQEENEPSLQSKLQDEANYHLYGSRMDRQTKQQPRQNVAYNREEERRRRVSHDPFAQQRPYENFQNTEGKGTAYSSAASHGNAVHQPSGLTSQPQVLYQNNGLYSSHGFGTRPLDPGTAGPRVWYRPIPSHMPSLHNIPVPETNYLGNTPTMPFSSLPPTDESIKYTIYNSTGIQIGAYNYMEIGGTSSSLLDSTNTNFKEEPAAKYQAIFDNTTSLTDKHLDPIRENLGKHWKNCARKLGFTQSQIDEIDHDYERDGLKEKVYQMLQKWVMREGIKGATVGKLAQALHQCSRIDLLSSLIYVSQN
T1 sequence (Q60855 whole entry): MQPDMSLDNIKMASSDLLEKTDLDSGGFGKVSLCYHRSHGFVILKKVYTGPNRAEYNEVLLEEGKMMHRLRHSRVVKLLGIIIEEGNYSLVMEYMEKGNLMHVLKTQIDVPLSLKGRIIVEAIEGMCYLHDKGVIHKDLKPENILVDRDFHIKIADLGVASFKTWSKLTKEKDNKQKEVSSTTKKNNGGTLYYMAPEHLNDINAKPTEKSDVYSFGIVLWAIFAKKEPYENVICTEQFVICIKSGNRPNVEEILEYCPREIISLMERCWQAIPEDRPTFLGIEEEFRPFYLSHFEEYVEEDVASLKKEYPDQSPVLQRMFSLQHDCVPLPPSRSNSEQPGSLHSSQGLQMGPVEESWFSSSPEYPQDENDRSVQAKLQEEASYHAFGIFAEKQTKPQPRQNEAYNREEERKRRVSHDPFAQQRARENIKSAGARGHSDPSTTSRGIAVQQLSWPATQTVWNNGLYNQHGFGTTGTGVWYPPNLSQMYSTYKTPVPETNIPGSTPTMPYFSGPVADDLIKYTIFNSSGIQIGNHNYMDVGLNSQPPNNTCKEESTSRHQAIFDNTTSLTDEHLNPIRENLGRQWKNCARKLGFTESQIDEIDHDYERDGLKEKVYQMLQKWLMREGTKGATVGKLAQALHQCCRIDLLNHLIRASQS

| SMILES | polymerized MLKL-induced necroptosis (HeLa-MLKL (1–190) cells) | kinase activity of mouse RIPK1 in vitro (mouse RIPK1) | IC50 (human RIPK1) | generation of RIPK3 puncta [1] |
| --- | --- | --- | --- | --- |
| CC(=O)Nc1nc2ccc(-c3cnc(Cl)c(NC(=O)Cc4ccccc4)c3)cc2s1 [PK6, N-(5-(2-acetamidobenzo[d]thiazol-6-yl)-2-chloropyridin-3-yl)-2-phenylacetamide] | neither PK6 nor PK68 had any effect | able to block | 200 ± 130 nM | prevented generation of RIPK3 puncta |
| CC(=O)Nc1nc2ccc(-c3cnc(C)c(NC(=O)OC4CCCCC4)c3)cc2s1 [PK68, cyclohexyl (5-(2-acetamidobenzo[d]thiazol-6-yl)-2-methylpyridin-3-yl)carbamate] | neither PK6 nor PK68 had any effect | able to block | ~90 nM and 90 nM | prevented generation of RIPK3 puncta |
